Reference: PubChem BioAssay AID1347042

The compounds below were run on MutuI BL cells, EBV BHLF1 promoter luciferase, 48 h (assay: inducers of EBV BHLF1 promoter reporter – cell-based, MutuI Burkitt lymphoma, luciferase, dose response (AID 1347042)).

EC50, active:
COc1ccccc1NC(=O)N1CCc2c([nH]c3ccc(Cl)cc23)C1c1ccc(C)cc1 (stereo not given) 170 nM
COC(=O)c1ccccc1NC(=O)N1CCc2c([nH]c3ccc(Cl)cc23)C1c1ccc(OC)cc1 (stereo not given) 158 nM
CCOC(=O)c1ccccc1NC(=O)N1CCc2c([nH]c3ccc(OC)cc23)C1c1ccc(C)cc1 (stereo not given) 108 nM
COc1ccc(C2c3[nH]c4ccc(Cl)cc4c3CCN2C(=O)Nc2ccc(OC)cc2OC)cc1 (stereo not given) 113 nM
COC(=O)c1sccc1NC(=O)N1CCc2c([nH]c3ccc(OC)cc23)C1c1ccc(C)cc1 (stereo not given) 576 nM
